Data from EP4624465A1, “COMPOUND SERVING AS DDR1 KINASE INHIBITOR, AND MEDICINE” (Nippon Shinyaku Co., Ltd., priority 2022, dated 2024).
Structures can show the parent of a compound that is named as a salt.

Legend:
[1] = biological target: T1, DDR1 kinase (Homo sapiens, UniProt Q08345); assay: Evaluation of DDR1 kinase inhibition (LANCE Ultra TR-FRET kinase assay); assay type: biochemical; set-up: purchased Carna Biosciences 08-113; details: DDR1 protein 0.5 nM, LANCE Ultra ULight-poly GAT substrate, 2 hours at room temperature, duplicate; read-out: DDR-1 IC50
Target sequence in this assay (Q08345 19-876 isoform Q08345-2 limits assumed): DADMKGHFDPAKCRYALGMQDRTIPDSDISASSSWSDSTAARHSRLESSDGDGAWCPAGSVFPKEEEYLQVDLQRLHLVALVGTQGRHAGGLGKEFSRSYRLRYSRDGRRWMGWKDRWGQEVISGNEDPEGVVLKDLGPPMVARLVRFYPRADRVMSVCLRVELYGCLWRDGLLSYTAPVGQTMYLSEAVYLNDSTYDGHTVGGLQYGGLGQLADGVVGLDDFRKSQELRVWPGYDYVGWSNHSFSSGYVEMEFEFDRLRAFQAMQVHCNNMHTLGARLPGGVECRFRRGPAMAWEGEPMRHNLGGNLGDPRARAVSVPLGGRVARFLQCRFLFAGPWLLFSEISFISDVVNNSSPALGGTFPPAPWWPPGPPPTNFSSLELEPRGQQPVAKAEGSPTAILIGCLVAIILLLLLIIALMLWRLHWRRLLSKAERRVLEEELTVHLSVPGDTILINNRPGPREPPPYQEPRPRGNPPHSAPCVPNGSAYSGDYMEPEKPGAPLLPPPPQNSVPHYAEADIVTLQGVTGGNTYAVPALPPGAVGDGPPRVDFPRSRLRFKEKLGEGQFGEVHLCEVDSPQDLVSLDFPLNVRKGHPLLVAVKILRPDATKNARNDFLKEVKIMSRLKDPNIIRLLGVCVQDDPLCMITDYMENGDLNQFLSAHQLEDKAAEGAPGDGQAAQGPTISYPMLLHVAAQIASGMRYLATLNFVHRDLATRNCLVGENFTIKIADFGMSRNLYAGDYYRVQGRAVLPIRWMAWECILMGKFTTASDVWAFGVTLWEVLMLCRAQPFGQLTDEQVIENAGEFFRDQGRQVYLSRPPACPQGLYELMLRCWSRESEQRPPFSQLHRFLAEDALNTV

[2] = biological target: T1, DDR1 kinase; assay: Evaluation of DDR1 kinase inhibition in DDR1-expressing U2OS cells (type I collagen stimulation, PathHunter detection); assay type: cell-based; set-up: host or cells: U2OS; details: type I collagen 50 µg/mL stimulation, duplicate, read-out: DDR-1 IC50
Procedure: The solution was further diluted in an E-MEM medium (Fujifilm Wako Pure Chemicals, 051-07615) containing 10% fetal bovine serum (FBS, Gibco, 10270106) to 60000, 6000, 600, 60, 6, and 0.6 nM to prepare test substance solutions. 2. […] On the following day, after the plate was left at room temperature for 1 hour, a detection solution was added to the wells at […] according to the handling instructions for the PathHunter® Detection Kit (DiscoverX, 93-0001), and then incubated at room temperature for 2 hours. After the incubation, a luminescence intensity was measured by Envision (Perkin-Elmer). Tests were performed in duplicate. 3.
Target sequence in this assay (Q08345 19-913): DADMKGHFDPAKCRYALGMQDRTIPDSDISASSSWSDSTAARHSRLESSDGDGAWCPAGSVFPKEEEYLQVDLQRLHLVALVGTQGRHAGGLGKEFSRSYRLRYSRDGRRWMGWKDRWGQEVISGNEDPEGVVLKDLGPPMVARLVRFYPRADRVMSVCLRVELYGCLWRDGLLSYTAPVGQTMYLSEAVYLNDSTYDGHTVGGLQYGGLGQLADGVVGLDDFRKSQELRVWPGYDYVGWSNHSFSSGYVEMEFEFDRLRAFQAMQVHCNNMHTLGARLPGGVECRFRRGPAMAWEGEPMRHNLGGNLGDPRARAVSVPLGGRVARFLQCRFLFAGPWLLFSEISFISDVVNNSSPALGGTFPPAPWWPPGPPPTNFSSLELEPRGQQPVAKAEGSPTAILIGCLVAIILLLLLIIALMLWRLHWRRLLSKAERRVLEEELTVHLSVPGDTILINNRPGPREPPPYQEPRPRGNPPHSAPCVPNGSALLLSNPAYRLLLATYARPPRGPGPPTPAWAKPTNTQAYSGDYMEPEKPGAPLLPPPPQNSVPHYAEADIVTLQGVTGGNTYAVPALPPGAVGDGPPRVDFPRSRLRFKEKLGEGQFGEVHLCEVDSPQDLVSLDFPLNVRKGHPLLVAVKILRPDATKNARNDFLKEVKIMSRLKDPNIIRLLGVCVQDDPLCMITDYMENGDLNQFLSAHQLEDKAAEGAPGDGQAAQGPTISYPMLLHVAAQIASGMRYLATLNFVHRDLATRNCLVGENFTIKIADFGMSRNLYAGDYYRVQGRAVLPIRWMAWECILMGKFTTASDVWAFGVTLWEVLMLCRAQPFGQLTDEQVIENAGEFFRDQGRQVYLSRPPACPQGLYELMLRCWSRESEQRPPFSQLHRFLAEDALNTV

| Compound | IC50 [1] | IC50 [2] |
| --- | --- | --- |
| Nc1cc(C(=O)N2CC(c3nn(Cc4cn(CC5CCC5)nn4)c4cccc(F)c34)C2)ccn1 [Compound E-92, 4-[3-(1-{[1-(cyclobutylmethyl)-1H-1,2,3-triazol-4-yl]methyl}-4-fluoro-1H-indazol-3-yl)azetidine-1-carbonyl]pyridin-2-amine hydrochloride] | 71 nM | 1400 nM |
| O=C(c1cnc2ccccn12)N1CC(c2nn(CC(=O)N3CCC[C@H]3C(F)(F)F)c3cc(F)cc(F)c23)C1 [Compound E-101] | 21 nM | 270 nM |
| Nc1ncc(C(=O)N2CC(c3nn(CC(=O)N4CCC[C@H]4C(F)(F)F)c4cc(F)cc(F)c34)C2)o1 [Compound E-105, 2-{3-[1-(2-amino-1,3-oxazole-5-carbonyl)azetidin-3-yl]-4,6-difluoro-1H-indazol-1-yl}-1-[(28)-2-(trifluoromethyl)pyrrolidin-1-yl]ethan-1-one] | 79 nM | 370 nM |
| Nc1cc(C(=O)N2CC(c3nn(C(F)C(=O)N4CCC[C@H]4C(F)(F)F)c4cc(F)cc(F)c34)C2)ccn1 (stereo partly drawn) [Compound E-107, 2-{3-[1-(2-aminopyridine-4-carbonyl)azetidin-3-yl]-4,6-difluoro-1H-indazol-1-yl}-2-fluoro-1-[(2S)-2-(trifluoromethyl)pyrrolidin-1-yl]ethan-1-one] | 91 nM | 670 nM |
| Nc1cc(C(=O)N2CCC(c3cn(CC(=O)N4CCC[C@H]4C(F)(F)F)c4cccc(F)c34)CC2)ccn1 [Compound E-108, 2-{3-[1-(2-aminopyridine-4-carbonyp)piperidin-4-yl]-4-fluoro-1H-indol-1-yl}-1-[(2S)-2-(trifluoromethyl)pyrrolidin-1-yl]ethan-1-one] | 1 nM | 100 nM |
| Cc1nc(N)oc1C(=O)N1CC(c2nn(CC(=O)N3CCC[C@H]3C(F)(F)F)c3cc(F)cc(F)c23)C1 [Compound E-110, 2-{3-{1-(2-amino-4-methyl-1,3-oxazole-5-carbonyl)azetidin-3-yl}-4,6-difluoro-1H-indazol-1-yl}-1-[(2S)-2-(trifluoromethyl)pyrrolidin-1-yl]ethan-1-one] | 45 nM | 110 nM |
| Nc1cc(C(=O)N2CC(c3nn(Cc4cccc(C(F)(F)F)c4)c4cccc(F)c34)C2)ccn1 [Compound E-113, 4-[3-(4-fluoro-1-{[3-(trifluoromethyl)phenyllmethyl}-1H-indazol-3-yl)azetidine-1-carbonyl]pyridin-2-amine hydrochloride] | 25 nM | 470 nM |
| Nc1cc(C(=O)N2CC(c3nn(Cc4noc(-c5ccc(F)cc5)n4)c4cccc(F)c34)C2)ccn1 [Compound E-116, 4-[3-(4-fluoro-1-{[5-(4-fluorophenyl)-1,2,4-oxadiazol-3-yl]methyl}-1H-indazol-3-yl)azetidine-1-carbonyl]pyridin-2-amine] | 4.4 nM | 800 nM |
| O=C(c1ccnc(NC2CC2)c1)N1CC(c2nn(CC(=O)N3CCC[C@H]3C(F)(F)F)c3cccnc23)C1 [Compound E-121, 2-(3-{1-[2-(cyclopropylamino)pyridine-4-carbonyl]azetidin-3-yl}-1H-pyrazolo[4,3-b]pyridin-1-yl)-1-[(2S)-2-(trifluoromethyl)pyrrolidin-1-yl]ethan-1-one] | 24 nM | 170 nM |
| Nc1cc(C(=O)N2CC=C(c3cn(CC(=O)N4CCC[C@H]4C(F)(F)F)c4cccc(F)c34)CC2)ccn1 [Compound E-124] | 2.2 nM | 140 nM |
| Cc1ccc2c(n1)c(C1CN(C(=O)c3ccnc(NC4CC4)c3)C1)nn2CC(=O)N1CCC[C@H]1C(F)(F)F [Compound E-130, 2-(3-(1-[2-(cyclopropylamino)pyridine-4-carbonyl]azetidin-3-yl}-5-methyl-1H-pyrazolo[4,3-b}pyridin-1-yl)-1-[(2S)-2-(trifluoromethyl)pyrrolidin-1-yl]ethan-1-one] | 5.7 nM | 82 nM |
| Cc1c(C(=O)N2CC(c3nn(CC(=O)N4CCO[C@@H](C(F)(F)F)C4)c4cncc(F)c34)C2)ccnc1N [Compound E-180, 2-{3-[1-(2-amino-3-methylpyridine-4-carbonyl)azetidin-3-yl]-4-fluoro-1H-pyrazolo{3,4-c)pyridin-1-yl}-1-[(2R)-2-(trifluoromethyl)morpholin-4-yl}ethan-1-one] | 22 nM | 3000 nM |

Continued, values first:

| IC50 [1] | IC50 [2] | Compound |
| --- | --- | --- |
| 7.7 nM | 480 nM | Nc1cc(C(=O)N2CC(c3nn(CC(=O)N4CCO[C@@H](C(F)(F)F)C4)c4cccc(F)c34)C2)ccn1 [Compound E-95, 2-{3-[1-(2-aminopyridine-4-carbonyl)azetidin-3-yl]-4-fluoro-1H-indazol-1-yl}-1-[(2R)-2-(trifluoromethyl)morpholin-4-yl]ethan-1-one hydrochloride] |
| 0.9 nM | 84 nM | Nc1cc(C(=O)N2CC(c3nn(CC(=O)N4CCC[C@H]4C(F)(F)F)c4cccc(F)c34)C2)ccn1 [Compound E-96, 2-{3-[1-(2-aminopyridine-4-carbonyl)azetidin-3-yl]-4-fluoro-1H-indazol-1-yl}-1-[(2S)-2-(trifluoromethyl)pyrrolidin-1-yl]ethan-1-one] |
| 86 nM | 3700 nM | O=C(c1cnc(NC2CC2)s1)N1CC(c2nn(CC(=O)N3CCC[C@H]3C(F)(F)F)c3cc(F)cc(F)c23)C1 [Compound E-98, 2-(3-{1-[2-(cyclopropylamino)-1,3-thiazole-5-carbonyl]azetidin-3-yl]-4,6-difluoro-1H-indazol-1-yl)-1-[(2S)-2-(trifluoromethyl)pyrrolidin-1-yl]ethan-1-one] |
| 40 nM | 150 nM | Cc1nc(NC2CC2)sc1C(=O)N1CC(c2nn(CC(=O)N3CCC[C@H]3C(F)(F)F)c3cc(F)cc(F)c23)C1 [Compound E-99, 2-(3-{1-[2-(cyclopropylamino)-4-methyl-1,3-thiazole-5-carbonyl]azetidin-3-yl}-4,6-difluoro-1H-indazol-1-y1)-1-[(2S)-2-(trifluoromethyl)pyrrolidin-1-yl]ethan-1-one] |
| 34 nM | 110 nM | Nc1cc(C(=O)N2CC(c3nn(CC(=O)N4CCO[C@@H](C(F)(F)F)C4)c4cncc(F)c34)C2)ccn1 [Compound E-100] |
| 13 nM | 3300 nM | O=C(c1cnn2ccsc12)N1CC(c2nn(CC(=O)N3CCC[C@H]3C(F)(F)F)c3cc(F)cc(F)c23)C1 [Compound E-102] |
| 5.2 nM | 110 nM | Nc1cc(C(=O)N2CC(c3nn(Cc4nc(-c5ccc(F)cc5)no4)c4cccc(F)c34)C2)ccn1 [Compound E-104, 4-[3-(4-fluoro-1-{[3-(4-fluorophenyl)-1,2,4-oxadiazol-5-yl]methyl}-1H-indazol-3-yl)azetidine,1-carbonyl)pyridin-2-amine] |
| 5.2 nM | 180 nM | Cc1nc(N)sc1C(=O)N1CC(c2nn(CC(=O)N3CCC[C@H]3C(F)(F)F)c3cc(F)cc(F)c23)C1 [Compound E-106] |
| 3.7 nM | 170 nM | Nc1cc(C(=O)N2CC(c3nn(Cc4ccc(C(F)(F)F)cc4)c4cccc(F)c34)C2)ccn1 [Compound E-112, 4-[3-(4-fluoro-1-{[4-(trifluoromethyl)phenyllmethyl}-1H-indazol-3-yl)azetidine-1-carbonyl]pyridin-2-amine hydrochloride] |
| 8.6 nM | 250 nM | Nc1cc(C(=O)N2CC(c3nn(Cc4nc(C(F)(F)F)no4)c4cccc(F)c34)C2)ccn1 [Compound E-115, 4-[3-(4-fluoro-1-{[3-(trifluoromethyn-1,2,4-oxadiazol-5-yl]methyl}-1H-indazol-3-yl)azetidine-1-carbonyl]pyridin-2-amine hydrochloride] |
| 6.3 nM | 70 nM | Nc1nccc(C(=O)N2CC(c3nn(CC(=O)N4CCC[C@H]4C(F)(F)F)c4cc(F)cc(F)c34)C2)n1 [Compound E-129, 2-{3-[1-(2-aminopyrimidine-4-carbonyl)azetidin-3-yl}-4,6-difluoro-1H-indazol-1-yl}-1-[(2S)-2-(trifluoromethyl)pyrrolidin-1-yl]ethan-1-one] |
| 18 nM | 850 nM | Nc1nc(C(F)(F)F)c(C(=O)N2CC(c3nn(CC(=O)N4CCC[C@H]4C(F)(F)F)c4cc(F)cc(F)c34)C2)s1 [Compound E-139, 2-(3-{1-[2-amino-4-(trifluoromethyl)-1,3-thiazole-5-carbonyl]azetidin-3-yl}-4,6-difluoro-1H-indazol-1-yl)-1-[(2S)-2-(trifluoromethyl)pyrrolidin-1-yl]ethan-1-one] |
| 9.8 nM | 1100 nM | O=C(c1ccc2[nH]nnc2c1)N1CC(c2nn(CC(=O)N3CCC[C@H]3C(F)(F)F)c3cc(F)cc(F)c23)C1 [Compound E-169, 2-{3-[1-(1H-1,2,3-benztriazole-5-carbonyl)azetidin-3-yl]-4,6-difluoro-1H-indazol-1-yl}-1-[(2S)-2-(trifluoromethyl)pyrrolidin-1-yl]ethan-1-one] |
| 8.8 nM | 500 nM | Cc1nc(N)sc1C(=O)N1CC(c2nn(CC(=O)N3CCCC3COC(F)(F)F)c3cncc(F)c23)C1 [Compound E-183, 2-{3-[1-(2-amino-4-methyl-1,3-thiazole-5-carbonylazetidin-3-yl)-4-fluoro-1H-pyrazolo[3,4-c]pyridin-1-yl}-1-[(2S)-2-[(trifluoromethoxy)methyl]pyrrolidin-1-yl]ethan-1-one p-toluenesulfonate] |
